Assay results as given in ChEMBL document CHEMBL1201862, “PubChem BioAssay data set” (2004).
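Tested at 5 concentrations; 48 h exposure; 96-well plates; endpoints linearly interpolated, else capped at highest concentration. The concentration for 50% growth inhibition is given as GI50.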 Active and inactive are the calls of the source. Cut-off read from the data, not from the text of the source: active = GI50 up to about 1.1 µM and inactive = higher.

Legend:
Experiment in all cases: inhibition of tumour cell growth, NCI panel, 48 h
[1] = test system: BT-549
[2] = test system: HT-29
[3] = test system: OVCAR-3
[4] = test system: TK-10
[5] = test system: SK-OV-3
[6] = test system: U-251
[7] = test system: HCT-116
[8] = test system: NCI-H522
[9] = test system: SK-MEL-28
[10] = test system: UO-31
[11] = test system: KM12
[12] = test system: T47D
[13] = test system: MOLT-4
[14] = test system: SF-539
[15] = test system: SN12C
[16] = test system: ACHN
[17] = test system: SF-268
[18] = test system: IGROV-1
[19] = test system: NCI-H226
[20] = test system: SK-MEL-5
[21] = test system: HCC 2998
[22] = test system: RXF 393
[23] = test system: MDA-MB-231
[24] = test system: NCI-H23
[25] = test system: SW-620
[26] = test system: UACC-257
[27] = test system: HCT-15
[28] = test system: OVCAR-4
[29] = test system: Malme-3M
[30] = test system: Hs-578T
[31] = test system: MDA-N
[32] = test system: SNB-19
[33] = test system: OVCAR-8
[34] = test system: NCI-H460
[35] = test system: UACC-62
[36] = test system: SF-295
[37] = test system: A498
[38] = test system: K562
[39] = test system: DU-145
[40] = test system: CAKI-1
[41] = test system: CCRF-CEM
[42] = test system: LOX IMVI
[43] = test system: SK-MEL-2
[44] = test system: A549
[45] = test system: MCF7
[46] = test system: 786-0
[47] = test system: SNB-75
[48] = test system: RPMI-8226
[49] = test system: EKVX
[50] = test system: HOP-62
[51] = test system: OVCAR-5
[52] = test system: NCI/ADR-RES
[53] = test system: HOP-92
[54] = test system: M14
[55] = test system: MDA-MB-435
[56] = test system: COLO 205
[57] = test system: PC-3
[58] = test system: SR
[59] = test system: HL-60

Q: Which GI50 [1] does the source give for COc1cccc2nc3c(C(=O)NCCN(C)C)cccc3cc12 here?
A: 2.57 µM (inactive)

Q: And the GI50 [2]?
A: 1.21 µM (inactive)

Q: What about the GI50 [3] of the same compound?
A: 3.14 µM (inactive)

Q: And the GI50 [4]?
A: 2.57 µM (inactive)

Q: And the GI50 [5]?
A: 1.43 µM (inactive)

Q: What about the GI50 [6] of the same compound?
A: 1.44 µM (inactive)

Q: What about the GI50 [7] of the same compound?
A: 1.34 µM (inactive)

Q: What about the GI50 [8] of the same compound?
A: 1.26 µM (inactive)

Q: And the GI50 [9]?
A: 2.63 µM (inactive)

Q: What about the GI50 [10] of the same compound?
A: 1.11 µM (active)

Q: What about the GI50 [11] of the same compound?
A: 2.3 µM (inactive)

Q: And the GI50 [12]?
A: 3.65 µM (inactive)

Q: And the GI50 [13]?
A: 0.325 µM (active)

Q: And the GI50 [14]?
A: 1.85 µM (inactive)

Q: And the GI50 [15]?
A: 1.16 µM (inactive)

Q: And the GI50 [16]?
A: 0.655 µM (active)

Q: What about the GI50 [17] of the same compound?
A: 3.24 µM (inactive)

Q: And the GI50 [18]?
A: 1.88 µM (inactive)

Q: What about the GI50 [19] of the same compound?
A: 1.4 µM (inactive)

Q: What about the GI50 [20] of the same compound?
A: 1.41 µM (inactive)

Q: What about the GI50 [21] of the same compound?
A: 3.44 µM (inactive)

Q: And the GI50 [22]?
A: 3.94 µM (inactive)

Q: And the GI50 [23]?
A: 2.37 µM (inactive)

Q: What about the GI50 [24] of the same compound?
A: 1.17 µM (inactive)

Q: What about the GI50 [25] of the same compound?
A: 1.09 µM (active)

Q: And the GI50 [26]?
A: 1.92 µM (inactive)

Q: What about the GI50 [27] of the same compound?
A: 1.91 µM

Q: And the GI50 [28]?
A: 1.67 µM (inactive)

Q: What about the GI50 [29] of the same compound?
A: 1.56 µM (inactive)

Q: What about the GI50 [30] of the same compound?
A: 1.82 µM (inactive)

Q: And the GI50 [31]?
A: 2.18 µM (inactive)

Q: What about the GI50 [32] of the same compound?
A: 2.35 µM (inactive)

Q: What about the GI50 [33] of the same compound?
A: 1.26 µM (inactive)

Q: What about the GI50 [34] of the same compound?
A: 0.195 µM (active)

Q: What about the GI50 [35] of the same compound?
A: 2.23 µM (inactive)

Q: What about the GI50 [36] of the same compound?
A: 2.12 µM (inactive)

Q: What about the GI50 [37] of the same compound?
A: 0.307 µM (active)

Q: And the GI50 [38]?
A: 1.95 µM (inactive)

Q: And the GI50 [39]?
A: 5.74 µM (inactive)

Q: And the GI50 [40]?
A: 0.619 µM (active)

Q: And the GI50 [41]?
A: 0.518 µM (active)

Q: What about the GI50 [42] of the same compound?
A: 0.771 µM (active)

Q: And the GI50 [43]?
A: 4.13 µM (inactive)

Q: What about the GI50 [44] of the same compound?
A: 0.473 µM (active)

Q: And the GI50 [45]?
A: 1.12 µM (active)

Q: What about the GI50 [46] of the same compound?
A: 1.16 µM (inactive)

Q: And the GI50 [47]?
A: 4.88 µM (inactive)

Q: And the GI50 [48]?
A: 1.21 µM (inactive)

Q: What about the GI50 [49] of the same compound?
A: 2.38 µM (inactive)

Q: And the GI50 [50]?
A: 1.19 µM (inactive)

Q: What about the GI50 [51] of the same compound?
A: 1.94 µM (inactive)

Q: And the GI50 [52]?
A: 2.71 µM (inactive)

Q: What about the GI50 [53] of the same compound?
A: 1.21 µM (inactive)

Q: What about the GI50 [54] of the same compound?
A: 1.64 µM (inactive)

Q: And the GI50 [55]?
A: 2.69 µM (inactive)

Q: What about the GI50 [56] of the same compound?
A: 1.13 µM (inactive)

Q: What about the GI50 [57] of the same compound?
A: 2.34 µM (inactive)

Q: And the GI50 [58]?
A: 0.42 µM (active)

Q: For C=CCNC(=S)N/N=C1\C(=O)Nc2ccc([N+](=O)[O-])cc21, which GI50 [1] is on record?
A: 52.4 µM (inactive)

Q: What about the GI50 [2] of the same compound?
A: 68.7 µM (inactive)

Q: And the GI50 [3]?
A: 69.2 µM (inactive)

Q: And the GI50 [4]?
A: 26.4 µM (inactive)

Q: And the GI50 [5]?
A: 34 µM (inactive)

Q: And the GI50 [6]?
A: 64.3 µM (inactive)

Q: And the GI50 [7]?
A: 24.8 µM (inactive)

Q: And the GI50 [8]?
A: 64.1 µM (inactive)

Q: And the GI50 [9]?
A: > 100 µM (inactive)

Q: And the GI50 [10]?
A: 31.2 µM (inactive)

Q: And the GI50 [11]?
A: 46.6 µM (inactive)

Q: And the GI50 [12]?
A: 25.5 µM (inactive)

Q: And the GI50 [13]?
A: 16.7 µM (inactive)

Q: What about the GI50 [14] of the same compound?
A: > 100 µM (inactive)

Q: What about the GI50 [15] of the same compound?
A: 35.5 µM (inactive)

Q: What about the GI50 [16] of the same compound?
A: 23.3 µM (inactive)

Q: What about the GI50 [17] of the same compound?
A: 57 µM (inactive)

Q: And the GI50 [18]?
A: 23.3 µM (inactive)

Q: What about the GI50 [19] of the same compound?
A: > 100 µM (inactive)

Q: And the GI50 [20]?
A: 30.1 µM (inactive)

Q: What about the GI50 [21] of the same compound?
A: 23.3 µM (inactive)

Q: What about the GI50 [22] of the same compound?
A: 16.8 µM (inactive)

Q: And the GI50 [23]?
A: > 100 µM (inactive)

Q: What about the GI50 [24] of the same compound?
A: 38.6 µM (inactive)

Q: And the GI50 [25]?
A: 82 µM (inactive)

Q: What about the GI50 [26] of the same compound?
A: 71 µM (inactive)

Q: And the GI50 [27]?
A: 7.57 µM

Q: What about the GI50 [28] of the same compound?
A: 41.4 µM (inactive)

Q: What about the GI50 [29] of the same compound?
A: > 100 µM (inactive)

Q: And the GI50 [30]?
A: > 100 µM (inactive)

Q: What about the GI50 [31] of the same compound?
A: 83 µM (inactive)

Q: And the GI50 [32]?
A: 55.7 µM (inactive)

Q: What about the GI50 [33] of the same compound?
A: 50.5 µM (inactive)

Q: What about the GI50 [34] of the same compound?
A: 16.6 µM (inactive)

Q: What about the GI50 [35] of the same compound?
A: > 100 µM (inactive)

Q: And the GI50 [36]?
A: 29 µM (inactive)

Q: And the GI50 [37]?
A: 21.1 µM (inactive)

Q: What about the GI50 [38] of the same compound?
A: 32.1 µM (inactive)

Q: And the GI50 [59]?
A: 54.7 µM (inactive)

Q: What about the GI50 [39] of the same compound?
A: 31.4 µM (inactive)

Q: What about the GI50 [40] of the same compound?
A: 14.2 µM (inactive)

Q: And the GI50 [41]?
A: 5.13 µM (inactive)

Q: And the GI50 [42]?
A: 81.8 µM (inactive)

Q: What about the GI50 [43] of the same compound?
A: > 100 µM (inactive)

Q: What about the GI50 [44] of the same compound?
A: 34.2 µM (inactive)

Q: What about the GI50 [45] of the same compound?
A: 36.1 µM (inactive)

Q: And the GI50 [48]?
A: 57.3 µM (inactive)

Q: What about the GI50 [49] of the same compound?
A: 42.2 µM (inactive)

Q: And the GI50 [50]?
A: > 100 µM (inactive)

Q: What about the GI50 [51] of the same compound?
A: > 100 µM (inactive)

Q: And the GI50 [52]?
A: 17.7 µM (inactive)

Q: And the GI50 [53]?
A: 44.2 µM (inactive)

Q: What about the GI50 [54] of the same compound?
A: 62.1 µM (inactive)

Q: And the GI50 [55]?
A: 89.3 µM (inactive)

Q: And the GI50 [56]?
A: 92 µM (inactive)

Q: And the GI50 [57]?
A: > 100 µM (inactive)

Q: And the GI50 [58]?
A: 10.3 µM (inactive)
